This is an account of results in PubChem BioAssay (NCI).

Test in all cases: inhibition of tumour cell growth, NCI panel, 48 h
Experiment [1] has as its system SK-MEL-2 melanoma.
The subject of experiment [2] is SK-MEL-5 melanoma.
Experiment [3] deals with SW-620 colon.
Experiment [4] relates to DMS 273 small cell lung.
The subject of experiment [5] is UACC-257 melanoma.
Experiment [6] concerns KM20L2 colon.
Experiment [7] concerns OVCAR-8 ovarian.
For experiment [8], the system named is LXFL 529 NSCLC.
Experiment [9] has as its system NCI-H23 lung.
For experiment [10], the system named is SF-268 CNS.
Experiment [11] deals with OVCAR-4 ovarian.
Experiment [12] relates to NCI/ADR-RES ovarian.

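The compound was tested at five concentrations on cells cultured in 96-well plates, with a 48-hour exposure period. TGI marks complete inhibition of growth.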

Regarding `Cc1nc2c(o1)C(=Nc1ccccc1)c1ccccc1C2=O`, the TGI in [1] came out at 18.9 µM; in [2], 5.78 µM; in experiment [3] it was 23.2 µM; in experiment [4], 23.2 µM; in [5], 19.5 µM; in experiment [6] it was 31.2 µM. Moreover, the TGI came out at 13.4 µM in [7], 24.1 µM in experiment [8], 5.25 µM in [9] and 24 µM in [10].
Regarding `Cc1ccc(C(=O)N(Cc2ccccc2)Cc2ccccc2)cc1N=NN(C)C`, the TGI was 9.79 µM in experiment [1]; 27.3 µM in experiment [2]; more than 87.4 µM in [11]; more than 100 µM in [3]; more than 100 µM in [4]; 53.4 µM in experiment [5]. Also, the TGI in [12] is more than 100 µM; in experiment [7], more than 100 µM; in experiment [8], 72.4 µM; in experiment [9], 58.7 µM; in [10], more than 100 µM.
Turning to `CCn1c(SC(C)C(=O)c2c(C)n(C)n(-c3ccccc3)c2=O)nc2ccccc2c1=O` (stereo unspecified), the TGI in experiment [1], in experiment [2], in [11], in [4], in [5] and in experiment [6] was more than 100 µM each time. Besides, the TGI in [7], in experiment [8], in [9] and in experiment [10] was more than 100 µM throughout.
For the compound `NC(=O)c1ccccc1NC(=O)C(=O)Cc1nc2ccccc2[nH]c1=O`, the TGI in [1], in experiment [2], in experiment [11], in experiment [3], in [4] and in experiment [5] was more than 100 µM each time. Further, the TGI in [6], in experiment [7], in [8], in experiment [9] and in experiment [10] was more than 100 µM each time.
Consider `CCN(CC)c1ccc(N=Nc2ccc([N+](=O)[O-])cc2OC(=O)/C=C/c2ccccc2)c(OC(=O)/C=C/c2ccccc2)c1`, for which the TGI in experiment [1] was more than 100 µM; in experiment [2], more than 100 µM; in [11], more than 100 µM; in experiment [3] it was more than 100 µM; in experiment [4], more than 100 µM; in experiment [5] it was 99.7 µM. Besides, the TGI in experiment [7], in experiment [8], in [9] and in experiment [10] was more than 100 µM in each case.
As to `O=c1cc(-c2c[nH]c3ccccc23)[nH]c2cc3c(cc12)OCO3`, the TGI in [1], in experiment [2], in [11], in [3], in experiment [4] and in [5] was more than 100 µM each time. Moreover, the TGI in [6], in [8], in experiment [9] and in [10] was more than 100 µM in each case.
As for `Cc1c(CCO)c(=O)n2c([nH]c3ccccc32)c1C#N`, the TGI in experiment [1], in experiment [2], in experiment [11], in [3], in experiment [4] and in [5] was more than 100 µM each time. The TGI in experiment [6], in experiment [7], in experiment [8], in experiment [9] and in [10] was more than 100 µM in each case.
As for `CCCC(C)n1c(C)nc2c1C(=O)c1ccccc1C2=O` (stereo unspecified), the TGI is 47.1 µM in [1]; 30 µM in experiment [2]; more than 100 µM in experiment [11]; more than 100 µM in [3]; 30.8 µM in experiment [4]; 63.1 µM in experiment [5]. In addition, the TGI was more than 100 µM in [6]; more than 100 µM in experiment [7]; more than 100 µM in [8]; 36.2 µM in [9]; more than 100 µM in experiment [10].
Take `COc1cc(CNc2cnc3cc(N)ccc3n2)cc(OC)c1OC`: the TGI in experiment [1] was 2.38 µM; in experiment [2] it was more than 100 µM; in [11], more than 100 µM; in experiment [3], more than 100 µM; in experiment [4], 2.43 µM; in experiment [5], more than 100 µM. The TGI in experiment [6] is 37.7 µM; in [7], more than 100 µM; in [8], more than 100 µM; in experiment [9], more than 100 µM; in [10] it was more than 100 µM.
On to `O=C1c2ccccc2C(=O)c2c(O)c(NCCCNCCO)cc(O)c21`, for which the TGI in [1] came to 33 µM; in experiment [11], 36.4 µM; in experiment [3] it was 18.4 µM; in [4], 22.7 µM; in experiment [7], 23.7 µM; in experiment [8], 29.8 µM. Further, the TGI turned out to be 24.6 µM in experiment [9] and 23.1 µM in [10].
On to `COc1cc(C2=NNC(=O)c3ccccc3N2c2nc(-c3cccs3)nc3ccc(Br)cc23)cc(OC)c1OC`, for which the TGI in experiment [1] is more than 100 µM; in [2], 50.4 µM; in [11] it was 86.4 µM; in experiment [3] it was more than 100 µM; in experiment [5] it was more than 100 µM; in experiment [12], 30 µM. In addition, the TGI is more than 100 µM in experiment [7], 53.4 µM in experiment [9] and 58.4 µM in experiment [10].
With `COC1CC(OC2C(C)OC(OC3C(C)OC(OC4C(O)CC(O[C@H]5CC[C@@]6(C)C(=CC[C@]7(O)[C@@H]6C[C@@H](OC(C)=O)[C@@]6(C)[C@]7(O)CC[C@@]6(O)C(C)=O)C5)OC4C)CC3OC)CC2OC)OC(C)C1O` (stereo partly specified), the TGI in experiment [1], in experiment [2], in experiment [11], in experiment [3], in [5] and in experiment [12] was more than 12.5 µM in each case. Moreover, the TGI in [7], in experiment [9] and in experiment [10] was more than 12.5 µM in each case.
